Read-outs that look alike come from different tables or passages of the source.
Key:
reactive oxygen species = type: cell-based, mouse
cytochrome c = type: cell-based, mouse
[1] = tested on: mitochondrial membrane potential; type: cell-based, mouse
mtOXPHOS transcripts = type: cell-based, mouse
[2] = tested on: cellular dehydrogenase activity
OXPHOS gene expression = type: cell-based, mouse
nuOXPHOS transcripts = type: cell-based, mouse
[3] = Conc 20 μM, normalized score vs mock-treated (DMSO) wells
[4] = normalized composite Z-score vs mock-treated (DMSO) wells, Conc 20 μM
[5] = Table 6, C2C12 myotubes, 48 h, composite Z-score
[6] = composite Z-score vs DMSO, Conc 20 μM
[7] = composite Z-score vs mock-treated (DMSO) wells, Conc 20 μM

CC(=O)O[C@@H]1CC2C(C)(C)[C@H](O)C=C[C@]2(C)C2CC[C@]3(C)C(=CC(=O)O[C@H]3c3ccoc3)[C@@]21C (stereo partly drawn) [3-alpha-hydroxydeoxygedinin]
ROS (composite Z-score) (reactive oxygen species; [3]): 0.531
cyt c (composite Z-score) (cytochrome c; [3]): −0.321
Viability (composite Z-score) (C2C12 myotubes; [3]): 0.156
ΔΨm (composite Z-score) [1, 3]: 1.760
mitoOX (composite Z-score) (mtOXPHOS transcripts; [3]): −0.939
MTT (composite Z-score) [2, 3]: −0.319
GE-HTS (composite Z-score) (OXPHOS gene expression; [3]): −1.171
nucOX (composite Z-score) (nuOXPHOS transcripts; [3]): −1.202

C=C1C(N)CC2CC1C2(C)C (stereo not drawn) [3-amino-beta-pinene]
ROS (reactive oxygen species; [4]): 0.421
cyt c (cytochrome c; [4]): 0.460
Viability (C2C12 myotubes; [4]): −0.108
ΔΨm [1, 4]: −0.519
mitoOX (mtOXPHOS transcripts; [4]): −1.138
MTT [2, 4]: −0.906
GE-HTS (OXPHOS gene expression; [4]): −1.376
nucOX (nuOXPHOS transcripts; [4]): −1.341

CC(=O)C(=Cc1ccccc1)CC(=O)O [3-benzylidenyl-levulinic acid]
ROS (composite Z-score) (reactive oxygen species): 0.382
cyt c (composite Z-score) (cytochrome c): −0.165
Viability (composite Z-score) (C2C12 myotubes): −0.431
ΔΨm (composite Z-score) [1]: −0.170
mitoOX (composite Z-score) (mtOXPHOS transcripts): −0.647
MTT (composite Z-score) [2]: −0.665
GE-HTS (composite Z-score) (OXPHOS gene expression): −0.639
nucOX (composite Z-score) (nuOXPHOS transcripts): −0.553

CC(=O)O[C@H]1C[C@@H](O)C(C)(C)[C@@H]2C[C@@H](OC(C)=O)[C@]3(C)[C@H](CC[C@@]4(C)[C@@H](c5ccoc5)OC(=O)[C@H]5O[C@@]534)[C@@]12C [3-deacetylkhivorin]
ROS (reactive oxygen species; [4]): 0.619
cyt c (cytochrome c; [4]): −0.600
Viability (C2C12 myotubes; [4]): 0.398
ΔΨm [1, 4]: 0.274
mitoOX (mtOXPHOS transcripts; [4]): −0.272
MTT [2, 4]: −0.317
GE-HTS (OXPHOS gene expression; [4]): −0.661
nucOX (nuOXPHOS transcripts; [4]): −0.823

COc1ccc2c(c1)OCC(Cc1ccc(OC)c(OC)c1)C2O (centres unmarked) [3-deshydroxysappanol trimethyl ether, reference compound]
ROS Zscore (reactive oxygen species; [5]): 1.3852
ROS (reactive oxygen species; [4]): 1.385
cyt c (cytochrome c; [4]): −0.948
Viability (C2C12 myotubes; [4]): 0.416
ΔΨm [1, 4]: 0.033
mitoOX (mtOXPHOS transcripts; [4]): 0.224
MTT [2, 4]: −0.416
GEHTS_Zscore (OXPHOS gene expression; [5]): 1.970
GE-HTS (OXPHOS gene expression; [4]): 0.465
nucOX (nuOXPHOS transcripts; [4]): 0.557

Cc1cc(O)c(C)c(O)c1C(=O)O [3-methylorsellinic acid]
ROS (reactive oxygen species; [6]): 0.860
cyt c (cytochrome c; [6]): 0.321
Viability (C2C12 myotubes; [6]): −0.494
ΔΨm [1, 6]: −0.030
mitoOX (mtOXPHOS transcripts; [6]): −0.108
MTT [2, 6]: −1.253
GE-HTS (OXPHOS gene expression; [6]): −1.005
nucOX (nuOXPHOS transcripts; [6]): −1.318

Cn1c(=O)[nH]c(=O)c2[nH]cnc21 [3-methylxanthine]
ROS (reactive oxygen species; [6]): 0.472
cyt c (cytochrome c; [6]): 0.692
Viability (C2C12 myotubes; [6]): 0.036
ΔΨm [1, 6]: −0.149
mitoOX (mtOXPHOS transcripts; [6]): −0.856
MTT [2, 6]: −0.859
GE-HTS (OXPHOS gene expression; [6]): −1.241
nucOX (nuOXPHOS transcripts; [6]): −1.286

CC1CCC23CCC4(C)C5(C)CCC6C(C)(C)C(=O)CCC6(C)C5CCC4(OC2=O)C3C1C (centres unmarked) [3-oxoursan (28-13)olide]
ROS (reactive oxygen species; [4]): 1.010
cyt c (cytochrome c; [4]): 0.991
Viability (C2C12 myotubes; [4]): 0.638
ΔΨm [1, 4]: −0.332
mitoOX (mtOXPHOS transcripts; [4]): −1.205
MTT [2, 4]: −1.871
GE-HTS (OXPHOS gene expression; [4]): −1.322
nucOX (nuOXPHOS transcripts; [4]): −1.228

CC1C(=NO)CC2CC1C2(C)C (centres unmarked) [3-pinanone oxime]
ROS (reactive oxygen species; [4]): −0.152
cyt c (cytochrome c; [4]): 0.014
Viability (C2C12 myotubes; [4]): −0.344
ΔΨm [1, 4]: −0.415
mitoOX (mtOXPHOS transcripts; [4]): 0.386
MTT [2, 4]: −0.210
GE-HTS (OXPHOS gene expression; [4]): 0.141
nucOX (nuOXPHOS transcripts; [4]): 0.031

CC(=O)c1ccc(O)c(CC=C(C)C)c1 [3-prenyl-4-hydroxyacetophenone]
ROS (reactive oxygen species; [6]): 2.418
cyt c (cytochrome c; [6]): 0.220
Viability (C2C12 myotubes; [6]): −0.696
ΔΨm [1, 6]: −0.010
mitoOX (mtOXPHOS transcripts; [6]): 0.804
MTT [2, 6]: −1.066
GE-HTS (OXPHOS gene expression; [6]): 0.607
nucOX (nuOXPHOS transcripts; [6]): 0.477

CC(=O)O[C@@H]1CC[C@@]2(C)C(C[C@@H](OC(C)=O)[C@@]3(C)C4=CC(=O)O[C@@H](c5ccoc5)[C@]4(C)CCC23)C1(C)C (stereo partly drawn) [3alpha-acetoxydihydrodeoxygedunin]
ROS (reactive oxygen species; [7]): 2.371
cyt c (cytochrome c; [7]): 0.179
Viability (C2C12 myotubes; [7]): 0.781
ΔΨm [1, 7]: 1.157
mitoOX (mtOXPHOS transcripts; [7]): −0.584
MTT [2, 7]: −1.653
GE-HTS (OXPHOS gene expression; [7]): −0.987
nucOX (nuOXPHOS transcripts; [7]): −1.123

CC(=O)O[C@@H]1CC2C(C)(C)[C@H](O)CC[C@]2(C)C2CC[C@@]3(C)[C@H](c4ccoc4)OC(=O)C4OC43[C@@]21C (stereo partly drawn) [3alpha-hydroxydeoxodihydrogedunin]
ROS (reactive oxygen species; [4]): 1.207
cyt c (cytochrome c; [4]): 1.091
Viability (C2C12 myotubes; [4]): 0.065
ΔΨm [1, 4]: −0.061
mitoOX (mtOXPHOS transcripts; [4]): −0.857
MTT [2, 4]: −1.072
GE-HTS (OXPHOS gene expression; [4]): −0.892
nucOX (nuOXPHOS transcripts; [4]): −0.832
